Laboratory results: article PMC9569995, “Study of Biological Activities and ADMET-Related Properties of Salicylanilide-Based Peptidomimetics” (International Journal of Molecular Sciences, 2022)
Where two headings read alike, the source gives them in different places.

Key:
[1] = system: Enterococcus faecalis ATCC 29212; assay: In vitro antibacterial evaluation, MIC by microtitration broth method
[2] = system: M. smegmatis ATCC 700084; assay: In vitro antimycobacterial evaluation, MIC (broth dilution micro-method); type: cell-based, Mycobacterium smegmatis; settings: Mycolicibacterium smegmatis
Experimental: For M. smegmatis, the broth dilution micro-method in Middlebrook 7H9 medium (Difco) supplemented with ADC Enrichment (Difco) was used. […] Bacterial inocula were prepared by transferring colonies from culture to sterile water. The cell density was adjusted to 0.5 McFarland units using a densitometer (Densi-La-Meter, LIAP, Riga, Latvia). The final inoculum was made by 1:1000 dilution of the suspension with sterile water. Drug-free controls, sterility controls, and controls consisting of medium and DMSO alone were included. The determination of results was performed visually after three days of static incubation in the darkness at 37 °C in an aerobic atmosphere.

[3] = system: Mycobacterium tuberculosis H37Ra/ATCC 25177; assay: In vitro antimycobacterial evaluation, MIC (alamarBlue); settings: MT
[4] = system: methicillin-resistant S. aureus SA 3202; assay: In vitro antibacterial evaluation, MIC by microtitration broth method; settings: Staphylococcus aureus
[5] = system: Staphylococcus aureus ATCC 29213; assay: as above
[6] = system: vancomycin-resistant E. faecalis VRE 725B; assay: as above; settings: Enterococcus faecalis
[7] = system: vancomycin-resistant E. faecalis VRE 342B; assay: as above; settings: Enterococcus faecalis
[8] = Lipophilicity determination by HPLC; type: physicochemical; settings: for log D6.5: HPLC C18, MeOH 72%/acetate-buffered saline pH 6.5 28%; for log D7.4: HPLC C18, MeOH 72%/acetate-buffered saline pH 7.4 28%; for log k: logarithm of capacity factor, HPLC C18, MeOH 72%/H2O 28%
Excerpt: . A chromatographic column Symmetry® C18 5 μm, 4.6 × 250 mm, Part No. W21751W016 (Waters Corp, Milford, MA, USA) was used. The HPLC separation process was monitored by ChemStation for LC 3D systems (Agilent Technologies). Isocratic elution by a mixture of MeOH (HPLC grade, 72%) and H2O-HPLC Mili-Q grade (28%) as a mobile phase was used for the determination of capacity factor k. Isocratic elution by a mixture of MeOH (HPLC grade, 72%) and acetate-buffered saline (pH 7.4 and pH 6.5) (28%) as a mobile phase was used for the determination of distribution coefficient expressed as D7.4 and D6.5. The total flow of the column was 1.0 mL/min, injection was 20 μL, column temperature was 40 °C, and sample temperature was 10 °C. The detection wavelength of 210 nm was chosen. A KI methanolic solution was used for the determination of the dead times (tD). Retention times (tR) were measured in minutes. The capacity factors k were calculated according to the formula k = (tR − tD)/tD, where tR is the retention time of the solute, and tD is the dead time obtained using an unretained analyte. The distribution coefficients DpH were calculated according to the formula DpH = (tR − tD)/tD. Each experiment was repeated three times.

[9] = system: human monocytic leukemia cell line THP-1; assay: In vitro cell viability analysis (CCK-8); type: cell-based; settings: ± SD, n = 6, medium with 10% FBS, 24 h
Experimental: Human monocytic leukemia THP-1 cells obtained from the European Collection of Cell Cultures (ECACC, Salisbury, UK) were used for in vitro antiproliferative assays. They were routinely cultured in Roswell Park Memorial Institute RPMI 1640 medium supplemented with 10% fetal bovine serum (FBS), 2% L-glutamine, 1% penicillin, and streptomycin (all from Sigma-Aldrich) at 37 °C with 5% CO2. The cells were incubated in a complete medium (i.e., containing FBS) with test compounds at 37 °C with 5% CO2 for 24 h, similarly as we described previously. The effect of the test compounds dissolved in DMSO on cell viability was determined using a Cell Counting Kit-8 (CCK-8; Sigma) according to the manufacturer’s instructions.

[10] = system: vancomycin-resistant E. faecalis VRE 368; assay: In vitro antibacterial evaluation, MIC by microtitration broth method; settings: Enterococcus faecalis
[11] = system: methicillin-resistant S. aureus SA 630; assay: as above; settings: Staphylococcus aureus
[12] = system: methicillin-resistant S. aureus 63718; assay: as above; settings: Staphylococcus aureus
[13] = ATCC700084, 72 h, MS, three days, 37 °C, read-out: MIC

| SMILES | MIC ([1]; ATCC29212) | MIC ([2]; ATCC700084) | MIC ([3]; Table S2) | MIC [4] | MIC ([5]; ATCC29213) | MIC [6] | MIC [7] | log D6.5 [8] | log D7.4 [8] | log k [8] | IC50 [9] | MIC [10] | MIC [11] | MIC [12] | MIC [2, 13] | MIC ([3]; 14 days, 37 °C) | other results |
| --- | --- | --- | --- | --- | --- | --- | --- | --- | --- | --- | --- | --- | --- | --- | --- | --- | --- |
| CCC[C@H](NC(=O)c1cc(Cl)ccc1OCc1ccccc1)C(=O)Nc1ccc(C(F)(F)F)cc1 [2b, 2-(Benzyloxy)-5-chloro-N-[(2S)-1-oxo-1-{[4-(trifluoromethyl)phenyl]amino}pentan-2-yl]benzamide] | > 256 µg/mL | > 256 µg/mL | > 256 µg/mL | > 256 µg/mL | > 256 µg/mL | > 256 µg/mL | > 256 µg/mL | 1.742 | 1.731 | 1.709 | > 10 µM | > 256 µg/mL | > 256 µg/mL | > 256 µg/mL | – | – | – |
| CC(C)C[C@H](NC(=O)c1cc(Cl)ccc1O)C(=O)N[C@@H](Cc1ccccc1)C(=O)Nc1ccc(C(F)(F)F)cc1 [6a] | – | – | – | – | – | – | – | 1.510 | 1.493 | 1.560 | 2.2 ± 1.1 µM | – | – | – | > 256 µg/mL | n.a. n.d. (n.a. = no activity (MIC > 256 µg/mL)) | MIC ([1]; ATCC29212, 24 h): > 256 µg/mL; MIC ([4]; 24 h): 444 µM; MIC ([5]; ATCC29213, 24 h): 222 µM; MIC ([6]; 24 h): > 256 µg/mL; MIC ([7]; 24 h): > 256 µg/mL; MIC ([10]; 24 h): > 256 µg/mL; MIC ([11]; 24 h): 444 µM; MIC ([12]; 24 h): 444 µM |
| O=C(N[C@@H](Cc1ccccc1)C(=O)N[C@@H](Cc1ccccc1)C(=O)Nc1ccc(C(F)(F)F)cc1)c1cc(Cl)ccc1O [6c] | – | – | – | – | – | – | – | 1.548 | 1.495 | 1.587 | 1.3 ± 1.1 µM | – | – | – | > 256 µg/mL | n.a. n.d. (n.a. = no activity (MIC > 256 µg/mL)) | MIC ([1]; ATCC29212, 24 h): > 256 µg/mL; MIC ([4]; 24 h): > 256 µg/mL; MIC ([5]; ATCC29213, 24 h): > 256 µg/mL; MIC ([6]; 24 h): > 256 µg/mL; MIC ([7]; 24 h): > 256 µg/mL; MIC ([10]; 24 h): > 256 µg/mL; MIC ([11]; 24 h): > 256 µg/mL; MIC ([12]; 24 h): > 256 µg/mL |
| CCCC[C@H](NC(=O)c1cc(Cl)ccc1OCc1ccccc1)C(=O)Nc1ccc(C(F)(F)F)cc1 [2d, 2-(Benzyloxy)-5-chloro-N-[(2S)-1-oxo-1-{[4-(trifluoromethyl)phenyl]amino}hexan-2-yl]benzamide] | > 256 µg/mL | > 256 µg/mL | > 256 µg/mL | > 256 µg/mL | > 256 µg/mL | > 256 µg/mL | > 256 µg/mL | 1.954 | 1.902 | 1.898 | > 10 µM | > 256 µg/mL | > 256 µg/mL | > 256 µg/mL | – | – | – |
| NNC(=O)c1ccncc1 [INH, isoniazid, reference compound] | – | – | – | – | – | – | – | – | – | – | – | – | – | – | 117 µM | 36.6 – µM | – |
| O=C(N[C@@H](CC1CCCCC1)C(=O)Nc1ccc(C(F)(F)F)cc1)c1cc(Cl)ccc1OCc1ccccc1 [2g, 2-(Benzyloxy)-5-chloro-N-[(2S)-3-cyclohexyl-1-oxo-1-{[4-(trifluoromethyl)phenyl]amino}propan-2-yl]benzamide] | > 256 µg/mL | > 256 µg/mL | > 256 µg/mL | > 256 µg/mL | > 256 µg/mL | > 256 µg/mL | > 256 µg/mL | 1.767 | 1.746 | 1.820 | > 10 µM | > 256 µg/mL | > 256 µg/mL | > 256 µg/mL | – | – | – |
| CC(C)C[C@H](NC(=O)c1cc(Cl)ccc1OCc1ccccc1)C(=O)N[C@@H](Cc1ccccc1)C(=O)Nc1ccc(C(F)(F)F)cc1 [5a] | > 256 µg/mL | > 256 µg/mL | > 256 µg/mL | > 256 µg/mL | > 256 µg/mL | > 256 µg/mL | > 256 µg/mL | 1.998 | 2.031 | 2.053 | > 10 µM | > 256 µg/mL | > 256 µg/mL | > 256 µg/mL | – | – | – |
| CC(C)C[C@H](NC(=O)c1cc(Cl)ccc1OCc1ccccc1)C(=O)Nc1ccc(C(F)(F)F)cc1 [2f] | > 256 µg/mL | > 256 µg/mL | > 256 µg/mL | > 256 µg/mL | > 256 µg/mL | > 256 µg/mL | > 256 µg/mL | 2.014 | 1.995 | 1.975 | > 10 µM | > 256 µg/mL | > 256 µg/mL | > 256 µg/mL | – | – | – |
| O=C(N[C@@H](Cc1ccccc1)C(=O)N[C@@H](Cc1ccccc1)C(=O)Nc1ccc(C(F)(F)F)cc1)c1cc(Cl)ccc1OCc1ccccc1 [5c] | > 256 µg/mL | > 256 µg/mL | > 256 µg/mL | > 256 µg/mL | > 256 µg/mL | > 256 µg/mL | > 256 µg/mL | 2.062 | 2.096 | 2.119 | > 10 µM | > 256 µg/mL | > 256 µg/mL | > 256 µg/mL | – | – | – |
| CC(C)C[C@H](NC(=O)[C@H](Cc1ccccc1)NC(=O)c1cc(Cl)ccc1OCc1ccccc1)C(=O)Nc1ccc(C(F)(F)F)cc1 [5b] | > 256 µg/mL | > 256 µg/mL | > 256 µg/mL | > 256 µg/mL | > 256 µg/mL | > 256 µg/mL | > 256 µg/mL | 1.994 | 2.027 | 2.049 | > 10 µM | > 256 µg/mL | > 256 µg/mL | > 256 µg/mL | – | – | – |
| C[C@H](NC(=O)c1cc(Cl)ccc1OCc1ccccc1)C(=O)Nc1ccc(C(F)(F)F)cc1 [2a, 2-(Benzyloxy)-5-chloro-N-[(2S)-1-oxo-1-{[4-(trifluoromethyl)phenyl]amino}propan-2-yl]benzamide] | > 256 µg/mL | > 256 µg/mL | > 256 µg/mL | > 256 µg/mL | > 256 µg/mL | > 256 µg/mL | > 256 µg/mL | 1.489 | 1.474 | 1.450 | > 10 µM | > 256 µg/mL | > 256 µg/mL | > 256 µg/mL | – | – | averaged lipophilicity value of log k/log D6.5/log D7.4 ([8]; average of the three experimental descriptors): 1.47 ± 0.02 |
| CCC[C@H](NC(=O)c1cc(Cl)ccc1O)C(=O)Nc1ccc(C(F)(F)F)cc1 [3b, 5-Chloro-2-hydroxy-N-[(2S)-1-oxo-1-{[4-(trifluoromethyl)phenyl]amino}pentan-2-yl]benzamide] | – | – | – | – | – | – | – | 1.060 | 1.016 | 1.141 | 7.3 ± 1.2 µM | – | – | – | > 256 µg/mL | n.a. n.d. (n.a. = no activity (MIC > 256 µg/mL)) | MIC ([1]; ATCC29212, 24 h): > 256 µg/mL; MIC ([4]; 24 h): > 256 µg/mL; MIC ([5]; ATCC29213, 24 h): > 256 µg/mL; MIC ([6]; 24 h): > 256 µg/mL; MIC ([7]; 24 h): > 256 µg/mL; MIC ([10]; 24 h): > 256 µg/mL; MIC ([11]; 24 h): > 256 µg/mL; MIC ([12]; 24 h): > 256 µg/mL |
